From patent US10988440B2, “FTO inhibitors” (National Institute of Biological Sciences, Beijing, priority 2015, dated 2021)
Where two headings read alike, the source gives them in different places.

Assays:
[1] = target: FTO (Homo sapiens, UniProt Q9C0B1); assay: demethylation reaction catalyzed by FTO (enzymatic inhibition, HPLC-MS/MS of N6-mA and A); format: biochemical
[2] = target: T1, COMT enzyme (Homo sapiens, UniProt P21964); assay: COMT inhibition assay (reaction kinetic model, esculetin fluorescence); format: biochemical; details: for inhibition at 0.05 µM: read-out: COMT inhibition at 50 nM; for inhibition at 0.2 µM: read-out: COMT inhibition at 200 nM
T1 construct: COMT (μM); other: at 200 nM; other: at 50 nM; The reaction system contains 1U COMT enzyme, test article, 4 μM Esculetin, 0.6 mM AdoMet, 50 mM K3PO4, and 10 mM MgCl2
T1 sequence (P21964 1-271): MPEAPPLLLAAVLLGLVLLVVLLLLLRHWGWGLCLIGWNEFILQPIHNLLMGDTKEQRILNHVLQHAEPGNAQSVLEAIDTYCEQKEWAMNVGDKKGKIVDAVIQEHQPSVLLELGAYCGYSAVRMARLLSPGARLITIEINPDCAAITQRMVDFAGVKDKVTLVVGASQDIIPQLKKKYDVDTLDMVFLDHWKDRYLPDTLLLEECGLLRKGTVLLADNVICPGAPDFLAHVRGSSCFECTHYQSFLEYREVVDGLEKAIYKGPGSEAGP

[3] = Rat liver microsome stability assay; format: in vitro ADME; details: liver microsomes, pH 7.4, rat liver microsome 1 mg/ml, test compound 2 μM, NADPH 1 mM, 37° C.; for microsomal CLint at 1 h, 2 µM: read-out: Rat Liver Microsome CLint (μL/min/mg protein); for half-life at 1 h, 2 µM: read-out: Rat Liver Microsome T½
[4] = exemplary IC50 data of representative compounds, read-out: Enzymatic inhibition (IC50)
[5] = selectivity table, read-out: FTO

FTO, sequence (Q9C0B1 whole entry): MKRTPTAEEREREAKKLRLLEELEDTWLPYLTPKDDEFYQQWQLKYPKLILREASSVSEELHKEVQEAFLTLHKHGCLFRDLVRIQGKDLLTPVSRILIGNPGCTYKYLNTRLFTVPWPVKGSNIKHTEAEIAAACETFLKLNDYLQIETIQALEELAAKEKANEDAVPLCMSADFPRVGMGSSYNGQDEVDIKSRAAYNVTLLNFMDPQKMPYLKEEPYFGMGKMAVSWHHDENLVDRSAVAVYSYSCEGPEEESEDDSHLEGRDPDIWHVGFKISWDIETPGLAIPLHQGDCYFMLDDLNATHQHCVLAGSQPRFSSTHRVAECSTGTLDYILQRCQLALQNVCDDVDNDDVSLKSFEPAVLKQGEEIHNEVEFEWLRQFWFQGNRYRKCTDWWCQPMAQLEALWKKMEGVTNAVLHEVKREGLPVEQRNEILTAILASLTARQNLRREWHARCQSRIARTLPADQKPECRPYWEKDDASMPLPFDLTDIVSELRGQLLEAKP

IC50 [1, 4] [nM]	Compound	also measured
< 1000	N#C/C(=C\c1cc(O)c(O)c([N+](=O)[O-])c1)C(=O)N1CCC1 [Compound 687]	IC50 [2]: 33 nM; IC50 [1, 5]: 1000 nM; microsomal CLint at 1 h, 2 µM [3]: 284 µL/min/mg; half-life at 1 h, 2 µM [3]: 2.44 min
< 1000	N#C/C(C(=O)NCc1ccncn1)=C(/O)c1cc(O)c(O)c([N+](=O)[O-])c1 [Compound 673, (Z)-2-cyano-3-(3,4-dihydroxy-5-nitrophenyl)-3-hydroxy-N-(pyrimidin-4-ylmethyl)acrylamide]	
< 1000	Cc1ccc(/C(C#N)=C/c2cc(O)c(O)c([N+](=O)[O-])c2)nc1 [Compound 502]	
> 1000	N#C/C(=C\c1cc(O)c(O)c([N+](=O)[O-])c1)C(=O)N1CCCC1 [Compound 317]	
< 1000	N#C/C(=C\c1cc(O)c(O)c([N+](=O)[O-])c1)C(=O)NCC(=O)O [Compound 709, (E)-2-(2-cyano-3-(3,4-dihydroxy-5-nitrophenyl)acrylamido)acetic Acid]	
> 1000	N#C/C(=C\c1cc(O)c(O)c([N+](=O)[O-])c1)C(=O)N1CCOCC1 [Compound 382]	
< 1000	N#C/C(=C\c1cc(O)c(O)c([N+](=O)[O-])c1)c1nc(C(=O)O)cs1 [Compound 666, (E)-2-(1-cyano-2-(3,4-dihydroxy-5-nitrophenyl)vinyl)thiazole-4-carboxylic Acid]	
~1000	N#C/C(=C\c1cc(O)c(O)c([N+](=O)[O-])c1)c1ccncc1 [Compound 389]	
> 1000	CCNC(=O)/C(C#N)=C/c1cc(O)c(O)c([N+](=O)[O-])c1 [Compound 684]	
~1000	N#C/C(=C\c1cc(O)c(O)c([N+](=O)[O-])c1)c1cncnc1 [Compound 522]	
> 1000	N#C/C(=C\c1cc(O)c(O)c([N+](=O)[O-])c1)C(=O)Nc1nc2ccccc2s1 [Compound 333]	
~1000	N#C/C(C(=O)c1cscn1)=C(/O)c1cc(O)c(O)c([N+](=O)[O-])c1 [Compound 711, (Z)-3-(3,4-dihydroxy-5-nitrophenyl)-3-hydroxy-2-(thiazole-4-carbonyl)acrylonitrile]	
< 1000	N#C/C(=C\c1cc(O)c(O)c([N+](=O)[O-])c1)C(=O)NC1COC1 [Compound 713]	
< 1000	N#C/C(=C\c1cc(O)c(O)c([N+](=O)[O-])c1)c1ncns1 [Compound 656, (E)-3-(3,4-dihydroxy-5-nitrophenyl)-2-(1,2,4-thiadiazol-5-yl)acrylonitrile]	
~1000	CC(NC(=O)/C(C#N)=C/c1cc(O)c(O)c([N+](=O)[O-])c1)C(=O)O (stereo not shown) [Compound 712]	
> 1000	COc1cc(/C(O)=C(\C#N)C(=O)NCc2ccncn2)cc([N+](=O)[O-])c1O [Compound 674]	
< 1000	N#CC(=Cc1cc(O)c(O)c([N+](=O)[O-])c1)c1cccnn1 (stereo in doubt) [Compound 505, (E)-3-(3,4-dihydroxy-5-nitrophenyl)-2-(pyridazin-3-yl)acrylonitrile]	
> 1000	N#C/C(=C\c1cc(O)c(O)c([N+](=O)[O-])c1)C(=O)NCCO [Compound 688, (E)-2-cyano-3-(3,4-dihydroxy-5-nitrophenyl)-N-(2-hydroxyethyl)acrylamide]	
> 1000	N#C/C(=C\c1cc(O)c(O)c([N+](=O)[O-])c1)C(=O)c1nc2ccccc2[nH]1 [Compound 394, 2-(1H-benzo[d]imidazole-2-carbonyl)-3-(3,4-dihydroxy-5-nitrophenyl)acrylo-nitrile]	

More lines, now with the values behind:

Compound	IC50 [1, 4] [nM]	also measured
N#C/C(C(=O)NC1CC1)=C(/O)c1cc(O)c(O)c([N+](=O)[O-])c1 [Compound 692, (Z)-2-cyano-N-cyclopropyl-3-(3,4-dihydroxy-5-nitrophenyl)-3-hydroxyacrylamide]	< 1000	
N#C/C(=C\c1cc(O)c(O)c([N+](=O)[O-])c1)C(=O)N1CCC[C@H]1C(=O)O [Compound 702, (S,E)-1-(2-cyano-3-(3,4-dihydroxy-5-nitrophenyl)acryloyl)pyrrolidine-2-carboxylic Acid]	~1000	
N#C/C(=C\c1cc(O)c(O)c([N+](=O)[O-])c1)C(=O)NCc1ccccc1 [Compound 366]	> 1000	
N#C/C(=C\c1cc(O)c(O)c([N+](=O)[O-])c1)C(=O)c1cscn1 [Compound 698]	> 1000	
CCNC(=O)/C(C#N)=C(\N)c1cc(O)c(O)c([N+](=O)[O-])c1 [Compound 691N, (Z)-3-amino-2-cyano-3-(3,4-dihydroxy-5-nitrophenyl)-N-ethylacrylamide]	~1000	
CCN(CC)C(=O)/C(C#N)=C(\O)c1cc(O)c(O)c([N+](=O)[O-])c1 [Compound 347, 2-cyano-3-(3,4-dihydroxy-5-nitrophenyl)-N,N-diethyl-3-oxopropanamide]		IC50 [2]: 551 nM; microsomal CLint at 1 h, 2 µM [3]: 0.1 µL/min/mg; half-life at 1 h, 2 µM [3]: 6930 min
CCNC(=O)/C(C#N)=C(\O)c1cc(O)c(O)c([N+](=O)[O-])c1 [Compound 691, (Z)-2-cyano-3-(3,4-dihydroxy-5-nitrophenyl)-N-ethyl-3-hydroxyacrylamide]	< 1000	
N#C/C(=C(/N)c1cc(O)c(O)c([N+](=O)[O-])c1)c1cnc(C(=O)O)cn1 [Compound 697N]	< 1000	
N#C/C(=C\c1cc(O)c(O)c([N+](=O)[O-])c1)C(=O)N1CCCCC1 [Compound 371, (E)-3-(3,4-dihydroxy-5-nitrophenyl)-2-(piperidine-1-carbonyl)acrylonitrile]		inhibition at 0.05 µM [2]: 33%; inhibition at 0.2 µM [2]: 71%; microsomal CLint at 1 h, 2 µM [3]: 43 µL/min/mg; half-life at 1 h, 2 µM [3]: 16.1 min
N#CC(=Cc1cc(O)c(O)c([N+](=O)[O-])c1)c1ccc[n+]([O-])c1 (stereo in doubt) [Compound 518, (E)-3-(1-cyano-2-(3,4-dihydroxy-5-nitrophenyl)vinyl)pyridine 1-oxide]	> 1000	
N#C/C(=C\c1cc(O)c(O)c([N+](=O)[O-])c1)c1c[n+]([O-])ccn1 [Compound 520]	< 1000	
N#C/C(C(=O)N1CCCOC1)=C(/O)c1cc(O)c(O)c([N+](=O)[O-])c1 [Compound 715]	< 1000	
N#C/C(C(=O)c1cscn1)=C(/N)c1cc(O)c(O)c([N+](=O)[O-])c1 [Compound 711N, ammonium (Z)-5-(1-amino-2-cyano-3-oxo-3-(thiazol-4-yl)prop-1-enyl)-2-hydroxy-3-nitrophenolate]	> 1000	
N#C/C(C(=O)N1CCC1)=C(/N)c1cc(O)c(O)c([N+](=O)[O-])c1 [Compound 701N, (Z)-3-amino-2-(azetidine-1-carbonyl)-3-(3,4-dihydroxy-5-nitrophenyl)acrylonitrile]	> 1000	
N#C/C(=C\c1cc(O)c(O)c([N+](=O)[O-])c1)C(=O)NO [Compound 664]	~1000	
N#C/C(=C\c1cc(O)c(O)c([N+](=O)[O-])c1)c1cccnc1 [Compound 319]	< 1000	
CCN(CC)C(=O)/C(C#N)=C/c1cc(O)c(O)c([N+](=O)[O-])c1 [Entacapone, entacapone, reference compound]		microsomal CLint at 1 h, 2 µM [3]: 17.7 µL/min/mg; half-life at 1 h, 2 µM [3]: 39.2 min
N#C/C(=C\c1cc(O)c(O)c([N+](=O)[O-])c1)c1ccncn1 [Compound 395, 3-(3,4-dihydroxy-5-nitrophenyl)-2-(pyrimidin-4-yl)acrylonitrile]	< 1000	inhibition at 0.05 µM [2]: 36%; inhibition at 0.2 µM [2]: 74%; IC50 [1, 5]: 500 nM; microsomal CLint at 1 h, 2 µM [3]: 12.6 µL/min/mg; half-life at 1 h, 2 µM [3]: 55 min
N#C/C(C(=O)NC1CC1)=C(/N)c1cc(O)c(O)c([N+](=O)[O-])c1 [Compound 692N, (Z)-3-amino-2-cyano-N-cyclopropyl-3-(3,4-dihydroxy-5-nitrophenyl)acrylamide]	> 1000	
N#C/C(=C(/O)c1cc(O)c(O)c([N+](=O)[O-])c1)c1nc2ccccc2s1 [Compound 359]	> 1000	
COc1cc(/C(O)=C(\C#N)c2cnccn2)cc([N+](=O)[O-])c1O [Compound 524]	~1000	
N#C/C(C(=O)Nc1cnccn1)=C(/O)c1cc(O)c(O)c([N+](=O)[O-])c1 [Compound 722]	< 1000	
N#C/C(=C\c1cc(O)c(O)c([N+](=O)[O-])c1)C(=O)Nc1ccccc1 [Compound 318]	~1000	
N#C/C(=C\c1cc(O)c(O)c([N+](=O)[O-])c1)C(=O)Nc1cccc(Cl)c1 [Compound 365]	~1000	
N#C/C(=C\c1cc(O)c(O)c([N+](=O)[O-])c1)C(=O)c1cc(O)no1 [Compound 675, (E)-3-(3,4-dihydroxy-5-nitrophenyl)-2-(3-hydroxyisoxazole-5-carbonyl)acrylonitrile]	> 1000	
N#C/C(=C\c1cc(O)c(O)c([N+](=O)[O-])c1)C(=O)N[C@@H](CO)C(=O)O [Compound 693, (S,E)-2-(2-cyano-3-(3,4-dihydroxy-5-nitrophenyl)acrylamido)-3-hydroxypropanoic Acid]	~1000	
N#C/C(C(=O)Nc1ncns1)=C(/O)c1cc(O)c(O)c([N+](=O)[O-])c1 [Compound 668, 2-cyano-3-(3,4-dihydroxy-5-nitrophenyl)-3-hydroxy-N-(1,2,4-thiadiazol-5-yl)acrylamide]	< 1000	
